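Interpolation was linear, between the two tested concentrations surrounding the appropriate level; five concentrations were tested over 48 hours in 96-well plates. GI50 = concentration required for 50% inhibition of growth. Definition used: TGI = concentration required for complete inhibition of growth.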
Legend:
Experiment in all cases: DTP human tumour cell line panel, 48 h
MALME-3M melanoma = system: MALME-3M melanoma
KM12 colon = system: KM12 colon
NCI-H460 lung = system: NCI-H460 lung
OVCAR-4 ovarian = system: OVCAR-4 ovarian
UACC-62 melanoma = system: UACC-62 melanoma
NCI-H522 lung = system: NCI-H522 lung
T-47D breast = system: T-47D breast
LOX IMVI melanoma = system: LOX IMVI melanoma
SF-295 CNS = system: SF-295 CNS
SK-MEL-28 melanoma = system: SK-MEL-28 melanoma
RXF 393 renal = system: RXF 393 renal
OVCAR-8 ovarian = system: OVCAR-8 ovarian
K-562 leukemia = system: K-562 leukemia
MCF7 breast = system: MCF7 breast
786-0 renal = system: 786-0 renal
MDA-MB-231 breast = system: MDA-MB-231 breast
OVCAR-5 ovarian = system: OVCAR-5 ovarian
HOP-92 NSCLC = system: HOP-92 NSCLC
A549 NSCLC = system: A549 NSCLC
U251 CNS = system: U251 CNS
HCT-116 colon = system: HCT-116 colon
SN12C renal = system: SN12C renal
PC-3 prostate = system: PC-3 prostate
HT29 colon = system: HT29 colon
DU-145 prostate = system: DU-145 prostate
CAKI-1 renal = system: CAKI-1 renal
SF-268 CNS = system: SF-268 CNS
SK-OV-3 ovarian = system: SK-OV-3 ovarian
HS 578T breast = system: HS 578T breast
SF-539 CNS = system: SF-539 CNS
SNB-19 CNS = system: SNB-19 CNS
NCI/ADR-RES ovarian = system: NCI/ADR-RES ovarian
TK-10 renal = system: TK-10 renal
SR leukemia = system: SR leukemia
BT-549 breast = system: BT-549 breast
MDA-MB-468 breast = system: MDA-MB-468 breast
M14 melanoma = system: M14 melanoma
NCI-H226 lung = system: NCI-H226 lung
CCRF-CEM leukemia = system: CCRF-CEM leukemia
IGROV1 ovarian = system: IGROV1 ovarian
SNB-75 CNS = system: SNB-75 CNS
UO-31 renal = system: UO-31 renal
MOLT-4 leukemia = system: MOLT-4 leukemia
NCI-H23 lung = system: NCI-H23 lung
EKVX NSCLC = system: EKVX NSCLC
SK-MEL-5 melanoma = system: SK-MEL-5 melanoma
HL-60(TB) leukemia = system: HL-60(TB) leukemia
OVCAR-3 ovarian = system: OVCAR-3 ovarian
A498 renal = system: A498 renal
MDA-MB-435 = system: MDA-MB-435
HCC-2998 colon = system: HCC-2998 colon
COLO 205 colon = system: COLO 205 colon
SW-620 colon = system: SW-620 colon
HOP-62 NSCLC = system: HOP-62 NSCLC
HCT-15 colon = system: HCT-15 colon
ACHN renal = system: ACHN renal
SK-MEL-2 melanoma = system: SK-MEL-2 melanoma
UACC-257 melanoma = system: UACC-257 melanoma
RPMI-8226 leukemia = system: RPMI-8226 leukemia

OCCCNc1oc(-c2ccccc2)nc1[P+](c1ccccc1)(c1ccccc1)c1ccccc1
GI50 (MALME-3M melanoma): 1.57 µM | TGI (MALME-3M melanoma): 5.38 µM | GI50 (KM12 colon): 2.13 µM | TGI (KM12 colon): 7.15 µM | GI50 (NCI-H460 lung): 2.61 µM | TGI (NCI-H460 lung): 11.3 µM | GI50 (OVCAR-4 ovarian): 2.37 µM | TGI (OVCAR-4 ovarian): 15.7 µM | GI50 (UACC-62 melanoma): 1.38 µM | TGI (UACC-62 melanoma): 3.85 µM | GI50 (NCI-H522 lung): 1.76 µM | TGI (NCI-H522 lung): 7.82 µM | GI50 (T-47D breast): 1.26 µM | TGI (T-47D breast): 6.72 µM | GI50 (LOX IMVI melanoma): 3.12 µM | TGI (LOX IMVI melanoma): 12.2 µM | GI50 (SF-295 CNS): 3.02 µM | TGI (SF-295 CNS): 10.5 µM | GI50 (SK-MEL-28 melanoma): 2.09 µM | TGI (SK-MEL-28 melanoma): 11 µM | GI50 (RXF 393 renal): 1.23 µM | TGI (RXF 393 renal): 5.79 µM | GI50 (OVCAR-8 ovarian): 2.84 µM | TGI (OVCAR-8 ovarian): 10.7 µM | GI50 (K-562 leukemia): 1.46 µM | TGI (K-562 leukemia): 11.7 µM | GI50 (MCF7 breast): 1.95 µM | TGI (MCF7 breast): 8.73 µM | GI50 (786-0 renal): 5.72 µM | TGI (786-0 renal): 20 µM | GI50 (MDA-MB-231 breast): 1.72 µM | TGI (MDA-MB-231 breast): 4.84 µM | GI50 (OVCAR-5 ovarian): 3.42 µM | TGI (OVCAR-5 ovarian): 15.5 µM | GI50 (HOP-92 NSCLC): 1.24 µM | TGI (HOP-92 NSCLC): 5.68 µM | GI50 (A549 NSCLC): 5.68 µM | TGI (A549 NSCLC): 20.3 µM | GI50 (U251 CNS): 2.67 µM | TGI (U251 CNS): 11.7 µM | GI50 (HCT-116 colon): 2.52 µM | TGI (HCT-116 colon): 15.9 µM | GI50 (SN12C renal): 2.61 µM | TGI (SN12C renal): 7.59 µM | GI50 (PC-3 prostate): 1.6 µM | TGI (PC-3 prostate): 9 µM | GI50 (HT29 colon): 2.45 µM | TGI (HT29 colon): 13.3 µM | GI50 (DU-145 prostate): 3.86 µM | TGI (DU-145 prostate): 16.4 µM | GI50 (CAKI-1 renal): 4.28 µM | TGI (CAKI-1 renal): 21.7 µM | GI50 (SF-268 CNS): 2.76 µM | TGI (SF-268 CNS): 11.8 µM | GI50 (SK-OV-3 ovarian): 2.34 µM | TGI (SK-OV-3 ovarian): 8.1 µM | GI50 (HS 578T breast): 2.25 µM | TGI (HS 578T breast): 8.21 µM | GI50 (SF-539 CNS): 3.86 µM | TGI (SF-539 CNS): 14.4 µM | GI50 (SNB-19 CNS): 2.15 µM | TGI (SNB-19 CNS): 7.25 µM | GI50 (NCI/ADR-RES ovarian): > 100 µM | TGI (NCI/ADR-RES ovarian): > 100 µM | GI50 (TK-10 renal): 3.62 µM | TGI (TK-10 renal): 16.3 µM | GI50 (SR leukemia): 3.43 µM | TGI (SR leukemia): 16.1 µM | GI50 (BT-549 breast): 1.87 µM | TGI (BT-549 breast): 6.03 µM | GI50 (MDA-MB-468 breast): 0.337 µM | TGI (MDA-MB-468 breast): 1.97 µM | GI50 (M14 melanoma): 3.13 µM | TGI (M14 melanoma): 17.7 µM | GI50 (NCI-H226 lung): 2.44 µM | TGI (NCI-H226 lung): 9.8 µM | GI50 (CCRF-CEM leukemia): 2.46 µM | TGI (CCRF-CEM leukemia): 13.5 µM | GI50 (IGROV1 ovarian): 2.14 µM | TGI (IGROV1 ovarian): 7.01 µM | GI50 (SNB-75 CNS): 1.3 µM | TGI (SNB-75 CNS): 5.38 µM | GI50 (UO-31 renal): 15.7 µM | TGI (UO-31 renal): 33.2 µM | GI50 (MOLT-4 leukemia): 3.01 µM | TGI (MOLT-4 leukemia): 12.1 µM | GI50 (NCI-H23 lung): 3.02 µM | TGI (NCI-H23 lung): 12.5 µM | GI50 (EKVX NSCLC): 2.81 µM | TGI (EKVX NSCLC): 13.6 µM | GI50 (SK-MEL-5 melanoma): 1.15 µM | TGI (SK-MEL-5 melanoma): 2.38 µM | GI50 (HL-60(TB) leukemia): 0.586 µM | TGI (HL-60(TB) leukemia): 2.9 µM | GI50 (OVCAR-3 ovarian): 1.44 µM | TGI (OVCAR-3 ovarian): 8.15 µM | GI50 (A498 renal): 10.4 µM | TGI (A498 renal): 23 µM | GI50 (MDA-MB-435): 2.26 µM | TGI (MDA-MB-435): 10 µM | GI50 (HCC-2998 colon): 2.95 µM | TGI (HCC-2998 colon): 12.8 µM | GI50 (COLO 205 colon): 1.26 µM | TGI (COLO 205 colon): 4.41 µM | GI50 (SW-620 colon): 3.29 µM | TGI (SW-620 colon): 15.2 µM | GI50 (HOP-62 NSCLC): 3.25 µM | TGI (HOP-62 NSCLC): 14.5 µM | GI50 (HCT-15 colon): 13.7 µM | TGI (HCT-15 colon): 28.1 µM | GI50 (ACHN renal): 10.2 µM | TGI (ACHN renal): 24.8 µM | GI50 (SK-MEL-2 melanoma): 2.49 µM | TGI (SK-MEL-2 melanoma): 6.46 µM | GI50 (UACC-257 melanoma): 1.98 µM | TGI (UACC-257 melanoma): 6.1 µM | GI50 (RPMI-8226 leukemia): 0.41 µM | TGI (RPMI-8226 leukemia): 10.2 µM

Source: PubChem BioAssay (NCI)
